The assay relates to CD8F1 mice, subcutaneous mammary adenocarcinoma, T/C%. Kind of assay: NCI In Vivo Anticancer Drug Screen. Data for tumor model Mammary Adenocarcinoma CD8F1 (subcutaneous) in CD8F1. To be noted: higher = larger tumour. The essentials: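 Mice carrying transplanted tumors received test compound, and survival or tumor size was recorded. Each value is the treated-group measurement divided by the corresponding measurement in vehicle-dosed controls.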

Where [1] appears, read: endpoint: median tumor weight (est.), dose: 12.5 mg/kg/injection, schedule: Q07DX005 (ip), vehicle: saline.
[2] abbreviates: endpoint: median tumor weight (est.), dose: 25.0 mg/kg/injection, schedule: Q07DX005 (ip), vehicle: saline.
Setting [3] is: endpoint: median tumor weight (est.), dose: 50.0 mg/kg/injection, schedule: Q07DX005 (ip), vehicle: saline.
Setting [4] is: endpoint: median tumor weight (est.), dose: 100.0 mg/kg/injection, schedule: Q07DX005 (ip), vehicle: saline.
Setting [5] is: endpoint: median tumor weight (est.), dose: 200.0 mg/kg/injection, schedule: Q07DX005 (ip), vehicle: saline.
The mark [6] stands for this setting: endpoint: median tumor weight change, dose: 125.0 mg/kg/injection, schedule: Q01DX001 (ip), vehicle: saline with Tween-80.
Where [7] appears, read: endpoint: median tumor weight change, dose: 250.0 mg/kg/injection, schedule: Q01DX001 (ip), vehicle: saline with Tween-80.

Structures are written as SMILES. “And” between values parts separate entries of the source, which are not always exact repeats. Identical values can stand only once. Inconclusive results are not listed. Residues, ends and D or L forms follow the SMILES beside them. *: point of attachment. Trt = c1ccc(C(c2ccccc2)(c2ccccc2)*)cc1; Cbz = O=C(OCc1ccccc1)*; Bn = c1ccc(C*)cc1; βAla = NCCC(=O)O

`NC(=S)c1ncn(C2OC(CO)C(O)C2O)c1N` (stereo not given): the T/C is 31 % of control under setting [1]; 48 % of control under setting [2]; 192 % of control (endpoint: median tumor weight (est.), dose: 25.0 mg/kg/injection, schedule: Q07DX005 (ip), vehicle: suspension in saline); 39 % of control under setting [3]; 49 % of control (endpoint: median tumor weight (est.), dose: 50.0 mg/kg/injection, schedule: Q07DX005 (ip), vehicle: suspension in saline); 31 % of control under setting [4]. Besides, the T/C (endpoint: median tumor weight (est.), dose: 100.0 mg/kg/injection, schedule: Q07DX005 (ip), vehicle: suspension in saline) was 45 % of control; the T/C under setting [5] was 12 % of control; the T/C (endpoint: median tumor weight (est.), dose: 200.0 mg/kg/injection, schedule: Q07DX005 (ip), vehicle: suspension in saline) was 95 % of control; the T/C (endpoint: median tumor weight (est.), dose: 400.0 mg/kg/injection, schedule: Q07DX005 (ip), vehicle: saline) was 10 % of control; the T/C (endpoint: median tumor weight (est.), dose: 400.0 mg/kg/injection, schedule: Q07DX005 (ip), vehicle: suspension in saline) is 121 % of control.
With `N=C(N)SCc1c2ccccc2c(CSC(=N)N)c2ccccc12`, the T/C by setting is: under setting [3], 105 % of control and 119 % of control; under setting [4], 107 % of control; under setting [5], 25 % of control; (endpoint: median tumor weight change, dose: 50.0 mg/kg/injection, schedule: Q01DX001 (ip), vehicle: saline + alcohol) 77 % of control; (endpoint: median tumor weight change, dose: 50.0 mg/kg/injection, schedule: Q01DX001 (ip), vehicle: suspension in saline) 90 % of control; (endpoint: median tumor weight change, dose: 100.0 mg/kg/injection, schedule: Q01DX001 (ip), vehicle: saline + alcohol) 99 % of control. Further, the T/C (endpoint: median tumor weight change, dose: 100.0 mg/kg/injection, schedule: Q01DX001 (ip), vehicle: suspension in saline) is 102 % of control and 111 % of control; the T/C (endpoint: median tumor weight change, dose: 200.0 mg/kg/injection, schedule: Q01DX001 (ip), vehicle: saline + alcohol) was 58 % of control; the T/C (endpoint: median tumor weight change, dose: 200.0 mg/kg/injection, schedule: Q01DX001 (ip), vehicle: suspension in saline) is 84 % of control and 86 % of control; the T/C (endpoint: median tumor weight change, dose: 400.0 mg/kg/injection, schedule: Q01DX001 (ip), vehicle: saline + alcohol) is 31 % of control.
In the case of `NC(Cc1ccc(N(CCCl)CCCl)cc1)C(=O)O` (stereo not given), the T/C (endpoint: median tumor weight (est.), dose: 2.0 mg/kg/injection, schedule: Q07DX005 (ip), vehicle: Klucel (hydroxypropylcellulose) (HPC)) was 39 % of control and the T/C (endpoint: median tumor weight (est.), dose: 4.0 mg/kg/injection, schedule: Q07DX005 (ip), vehicle: Klucel (hydroxypropylcellulose) (HPC)) was 33 % of control.
Consider `CS(=O)(=O)c1ncc(Br)cn1`, for which the T/C is, setting by setting: (endpoint: median tumor weight (est.), dose: 6.25 mg/kg/injection, schedule: Q07DX005 (ip), vehicle: saline with Tween-80) 242 % of control; (endpoint: median tumor weight (est.), dose: 12.5 mg/kg/injection, schedule: Q07DX005 (ip), vehicle: saline with Tween-80) 405 % of control; (endpoint: median tumor weight (est.), dose: 25.0 mg/kg/injection, schedule: Q07DX005 (ip), vehicle: saline with Tween-80) 222 % of control; (endpoint: median tumor weight (est.), dose: 50.0 mg/kg/injection, schedule: Q07DX005 (ip), vehicle: saline with Tween-80) 286 % of control; (endpoint: median tumor weight (est.), dose: 100.0 mg/kg/injection, schedule: Q07DX005 (ip), vehicle: saline with Tween-80) 348 % of control; (endpoint: median tumor weight (est.), dose: 200.0 mg/kg/injection, schedule: Q07DX005 (ip), vehicle: saline with Tween-80) 311 % of control.
As to `NC(=S)N/N=C/c1ccc(OC(=O)COc2ccccc2)cn1`, the T/C reads like this: (endpoint: mean tumor weight, dose: 12.5 mg/kg/injection, schedule: Q07DX005 (ip), vehicle: saline with Tween-80) 99 % of control; (endpoint: mean tumor weight, dose: 12.5 mg/kg/injection, schedule: Q07DX006 (ip), vehicle: saline with Tween-80) 96 % of control; (endpoint: mean tumor weight, dose: 25.0 mg/kg/injection, schedule: Q07DX005 (ip), vehicle: saline with Tween-80) 89 % of control; (endpoint: mean tumor weight, dose: 25.0 mg/kg/injection, schedule: Q07DX006 (ip), vehicle: saline with Tween-80) 106 % of control; (endpoint: mean tumor weight, dose: 50.0 mg/kg/injection, schedule: Q07DX005 (ip), vehicle: saline with Tween-80) 86 % of control; (endpoint: mean tumor weight, dose: 50.0 mg/kg/injection, schedule: Q07DX006 (ip), vehicle: saline with Tween-80) 83 % of control. Moreover, the T/C reads like this: (endpoint: mean tumor weight, dose: 100.0 mg/kg/injection, schedule: Q07DX005 (ip), vehicle: saline with Tween-80) 52 % of control; (endpoint: mean tumor weight, dose: 100.0 mg/kg/injection, schedule: Q07DX006 (ip), vehicle: saline with Tween-80) 101 % of control; (endpoint: mean tumor weight, dose: 200.0 mg/kg/injection, schedule: Q07DX005 (ip), vehicle: saline with Tween-80) 65 % of control; (endpoint: mean tumor weight, dose: 200.0 mg/kg/injection, schedule: Q07DX006 (ip), vehicle: saline with Tween-80) 33 % of control.
Consider `O=C(Nc1ccccc1C(=O)O)c1cc([N+](=O)[O-])cc([N+](=O)[O-])c1`, for which the T/C was 192 % of control under setting [6] and 117 % of control under setting [7].
Turning to `COc1cc2c(c(OC)c1OC)-c1ccc(OC)c(=O)cc1[C@@H](NC(=O)CCl)CC2`, the T/C (endpoint: median tumor weight change, dose: 5.0 mg/kg/injection, schedule: Q01DX001 (ip), vehicle: saline with Tween-80) is 76 % of control.
Regarding `CN(c1ccccc1)P(=O)(N1CC1)N1CC1`, the T/C (endpoint: mean tumor weight, dose: 12.5 mg/kg/injection, schedule: Q07DX007 (ip), vehicle: saline) was 3 % of control.
For the compound `COC(=O)C(CSC(c1ccccc1)(c1ccccc1)c1ccccc1)NC(=O)C(CSCc1ccccc1)NC(=O)CCNC(=O)OCc1ccccc1` (stereo not given) ({Cbz-βAla}-Cys(Bn)-Cys(Trt)-OMe; configuration not given here), the T/C was 107 % of control (endpoint: median tumor weight change, dose: 250.0 mg/kg/injection, schedule: Q01DX001 (ip), vehicle: Klucel (hydroxypropylcellulose) (HPC)); 95 % of control (endpoint: median tumor weight change, dose: 500.0 mg/kg/injection, schedule: Q01DX001 (ip), vehicle: Klucel (hydroxypropylcellulose) (HPC)); 90 % of control (endpoint: median tumor weight change, dose: 1000.0 mg/kg/injection, schedule: Q01DX001 (ip), vehicle: Klucel (hydroxypropylcellulose) (HPC)); 84 % of control (endpoint: median tumor weight change, dose: 2000.0 mg/kg/injection, schedule: Q01DX001 (ip), vehicle: Klucel (hydroxypropylcellulose) (HPC)).
In the case of `O=C1[C@H]2CCC[C@H]2[C@H]2CCC[C@@H]12`, the T/C is, setting by setting: (endpoint: median tumor weight change, dose: 62.5 mg/kg/injection, schedule: Q01DX001 (ip), vehicle: saline with Tween-80) 51 % of control; under setting [6], 44 % of control; under setting [7], 60 % of control; (endpoint: median tumor weight change, dose: 500.0 mg/kg/injection, schedule: Q01DX001 (ip), vehicle: saline with Tween-80) 35 % of control.
Regarding `O=c1[nH]c(=O)n(C2OC(CO)C(O)C2O)cc1F` (stereo not given), the T/C (endpoint: median tumor weight (est.), dose: 1.56 mg/kg/injection, schedule: Q07DX005 (ip), vehicle: saline) was 79 % of control; the T/C (endpoint: median tumor weight (est.), dose: 3.12 mg/kg/injection, schedule: Q07DX005 (ip), vehicle: saline) is 103 % of control; the T/C (endpoint: median tumor weight (est.), dose: 6.25 mg/kg/injection, schedule: Q07DX005 (ip), vehicle: saline) was 75 % of control; the T/C under setting [1] is 45 % of control; the T/C under setting [2] is 11 % of control.
Take `CCC(C(=O)O)C(=O)O.[NH2-].[NH2-].[Pt+2]`: the T/C is, setting by setting: (endpoint: median tumor weight change, dose: 15.62 mg/kg/injection, schedule: Q01DX001 (ip), vehicle: saline) 172 % of control; (endpoint: median tumor weight change, dose: 16.0 mg/kg/injection, schedule: Q01DX001 (ip), vehicle: saline) 121 % of control; (endpoint: median tumor weight change, dose: 31.0 mg/kg/injection, schedule: Q01DX001 (ip), vehicle: saline) 46 % of control; (endpoint: median tumor weight change, dose: 31.25 mg/kg/injection, schedule: Q01DX001 (ip), vehicle: saline) 87 % of control; (endpoint: median tumor weight change, dose: 62.0 mg/kg/injection, schedule: Q01DX001 (ip), vehicle: saline) 68 % of control; (endpoint: median tumor weight change, dose: 62.5 mg/kg/injection, schedule: Q01DX001 (ip), vehicle: saline) 92 % of control. Also, the T/C (endpoint: median tumor weight change, dose: 125.0 mg/kg/injection, schedule: Q01DX001 (ip), vehicle: saline) was 2 % of control and 26 % of control.
Take `CCN(CC)Cc1cc2[nH]c3c4ccc(Cl)cc4ncc3c2cc1OC`: the T/C was 47 % of control (endpoint: median tumor weight change, dose: 31.0 mg/kg/injection, schedule: Q01DX001 (ip), vehicle: saline with Tween-80); 109 % of control (endpoint: median tumor weight change, dose: 62.0 mg/kg/injection, schedule: Q01DX001 (ip), vehicle: saline with Tween-80); 118 % of control under setting [6].
Consider `COC1C=CC23c4cc5c(cc4C(O)OC2CN(C)C3C1)OCO5` (stereo not given), for which the T/C was 154 % of control (endpoint: median tumor weight (est.), dose: 18.75 mg/kg/injection, schedule: Q07DX005 (ip), vehicle: saline); 205 % of control (endpoint: median tumor weight (est.), dose: 37.5 mg/kg/injection, schedule: Q07DX005 (ip), vehicle: saline); 88 % of control (endpoint: median tumor weight (est.), dose: 75.0 mg/kg/injection, schedule: Q07DX005 (ip), vehicle: saline); 120 % of control (endpoint: median tumor weight (est.), dose: 150.0 mg/kg/injection, schedule: Q07DX005 (ip), vehicle: saline).

The values above are taken from PubChem BioAssay AID220 (DTP/NCI, 2004).
